The values that follow come from patent publication EP0444546B1, “Hydantoin derivatives for use as hypoglycemic and/or hypolipidemic agents” (MOCHIDA PHARMACEUTICAL CO., LTD., priority 1990, dated 1991).

Entries after “also recorded” stand apart in the source; their conditions may differ.

Data set [1] relates to streptozotocin-diabetic rats. Briefly: Ketone body lowering effects in streptozotocin-diabetic rats. The conditions noted are these: STZ-diabetic rats; for Lowering rate of serum total ketone body (%): 100 mg/kg orally for 2 weeks, blood 6 hrs after the last administration. Type of data set: in vivo. The protocol:
(§1) Diabetic rats were produced according to the method of Junod et al. (A. Junod et al., J. Clin. Invest., 48, 2129 (1969)). Briefly, male Wistar rats were given 26.5 mg/kg of streptozotocin (STZ) intravenously. Four days later, the rats with serum glucose levels of between 400 and 500 mg/dl were used. After being fasted for 4 hrs, groups of 5 diabetic rats were orally administered with the compounds of the present invention or gliclazide in a dose of 100 mg/kg. Blood samples were collected from the orbital vein before and 6 hrs after the administration. Serum glucose levels were determined by the enzymatic methods with an autoanalyzer (Cobas Fara ® , Roche).
(§2) Diabetic rats were produced according to the method described previously. Groups of 5 diabetic rats were orally administered with compound 20 or 23 of the present invention for 2 weeks. The rats were deprived of food 4 hrs before the last administration, and 6 hrs after the last administration, blood samples were collected from the orbital vein. Serum total ketone body (KB) levels were determined by the enzymatic method with an autoanalyzer (Cobas Fara ® , Roche). In this experiment, serum total ketone body levels in streptozotocin - diabetic rats increased by 92 % of normal rats in the mean value.

A further data set relates to normal rats. Briefly: Hypoglycemic effects in normal rats. It is filed as in vivo, male Wistar rats. The protocol:
Groups of 5 male Wistar rats, after being fasted for 4 hrs, were orally administered with compound 20 or 23 of the present invention or gliclazide. Blood samples were collected from the orbital vein before, 1 hr and 6 hrs after the administration. Serum glucose levels were determined by the enzymatic method with an autoanalyser (Cobas Fara ® , Roche).

Data set [2] relates to streptozotocin - diabetic rats. In words: Hypolipidemic effects in streptozotocin-diabetic rats. It is filed as in vivo. The conditions noted are these: STZ-diabetic rats; for Lowering rate of serum lipids (%) CHOL / Lowering rate of serum lipids (%) NEFA / Lowering rate of serum lipids (%) TG: 100 mg/kg orally for 2 weeks; for Lowering rate of serum lipids (%) CHOL: serum cholesterol 6 hrs after the last administration; for Lowering rate of serum lipids (%) NEFA: serum non-esterified fatty acid 6 hrs after the last administration; for Lowering rate of serum lipids (%) TG: serum triglyceride 6 hrs after the last administration. As for the experimental part: as §1
as §2, with “invention at a dose of 100 mg/kg” for “invention”, “triglyceride (TG), non - esterified fatty acid (NEFA) and cholesterol (CHOL)” for “total ketone body (KB)”, “experiment, each parameters of” for “experiment,”, “lipids” for “total ketone body levels”, “40” for “92”

Another data set has as its system ICR strain mice. Briefly: Acute toxicity in mice. Type of data set: in vivo. The conditions noted are these: oral dose of 1 g/kg, one-week period after the administration. From the text:
Hydantoin derivatives of the present invention were examined for acute toxicity.

Data set [3] relates to streptozotocin-diabetic rats. In words: Hypoglycemic effects in streptozotocin-diabetic rats. It is filed as in vivo, male Wistar rats. The protocol: Four days later, the rats with serum glucose levels of between 400 and 500 mg/dl were used. After being fasted for 4 hrs, groups of 5 diabetic rats were orally administered with the compounds of the present invention or gliclazide in a dose of 100 mg/kg. Blood samples were collected from the orbital vein before and 6 hrs after the administration. Serum glucose levels were determined by the enzymatic methods with an autoanalyzer (Cobas Fara ® , Roche).

[4] abbreviates: 100 mg/kg p.o., 1 hour after administration.
Where [5] appears, read: 100 mg/kg p.o., 6 hours after administration.

For `O=C1CN(S(=O)(=O)c2oc3ccccc3c2Br)C(=O)N1` [Compound 20, 1-(3-bromobenzo[b]furan-2-ylsulfonyl)hydantoin], in data set [1], the “lowering of serum total ketone body levels (in words)” value is given as “lowering activity” and the “Lowering rate of serum total ketone body (%)” value is recorded as 50%. Also, in the data set with normal rats, the “influence on serum glucose level of normal rats (in words)” value (shortened to “influence on serum glucose level”) was “lesser influences”. Moreover, the “Lowering rate of serum glucose (%)” value in the data set with normal rats (setting [4]) was 13%. Also, the “Lowering rate of serum glucose (%)” value in the data set with normal rats (setting [5]) is 6%. In data set [2], the “lowering of serum triglyceride, non - esterified fatty acid and cholesterol levels (in words)” value is listed as “lowering activities”; the “Lowering rate of serum lipids (%) CHOL” value amounted to 31%; the “Lowering rate of serum lipids (%) NEFA” value is given as 35%; the “Lowering rate of serum lipids (%) TG” value was 36%. In addition, the acute toxicity entry with ICR strain mice is given as “no change was observed”.

As for `O=C1CN(S(=O)(=O)c2cc3ccccc3s2)C(=O)N1` [Compound 8, 1-(benzo[b]thien-2-ylsulfonyl)hydantoin], in the data set on ICR strain mice, the acute toxicity entry was “no change was observed”.

`O=C1CN(S(=O)(=O)c2cc(Cl)sc2Cl)C(=O)N1` [Compound 16, 1-(2,5-dichlorothien-3-ylsulfonyl)hydantoin]: the acute toxicity result with ICR strain mice was “no change was observed”.

`Cc1ccc(S(=O)(=O)NC(=O)NN2CC3CCCC3C2)cc1` (centres unmarked) [Compound A, gliclazide, reference compound]: the “hypoglycemic activity (in words)” value in data set [3] (STZ-diabetic rats / experimental animal model of diabetes mellitus) is reported as “less potent hypoglycemic activity than all compounds of the present invention”. Also, the “influence on serum glucose level” value in the data set on normal rats is recorded as “significantly lowered; also recorded: remarkable hypoglycemic activity”. Also, the “Lowering rate of serum glucose (%)” value came out at 57% with normal rats (10 mg/kg p.o., 1 hour after administration) and 1% in the data set on normal rats (10 mg/kg p.o., 6 hours after administration).

As to `O=C1CN(S(=O)(=O)c2cc3ccc(Cl)cc3cc2Cl)C(=O)N1` [Compound 2, 1-(3,6-dichloronaphthalen-2-ylsulfonyl)hydantoin], the acute toxicity entry in the data set on ICR strain mice was “no change was observed”.

Take `O=C1CN(S(=O)(=O)c2oc3ccccc3c2Cl)C(=O)N1` [Compound 23, 1-(3-chlorobenzo[b]furan-2-ylsulfonyl)hydantoin]: in data set [1], the “lowering of serum total ketone body levels (in words)” value is on record as “lowering activity” and the “Lowering rate of serum total ketone body (%)” value came to 43%. Moreover, in the data set on normal rats, the “influence on serum glucose level” value is given as “lesser influences”. Moreover, in the data set with normal rats (setting [4]), the “Lowering rate of serum glucose (%)” value is on record as 9%. For the same compound, the “Lowering rate of serum glucose (%)” value with normal rats (setting [5]) came to 0%. Moreover, in data set [2], the “lowering of serum triglyceride, non - esterified fatty acid and cholesterol levels (in words)” value was “lowering activities”; the “Lowering rate of serum lipids (%) CHOL” value is listed as 30%; the “Lowering rate of serum lipids (%) NEFA” value worked out at 18%; the “Lowering rate of serum lipids (%) TG” value worked out at 43%. In addition, the acute toxicity entry with ICR strain mice is “no change was observed”.

For the compound “1-(benzo[b]isothiazol-3-ylsulfonyl)hydantoin [Compound 15]”, the “Lowering rate of serum glucose (%)” value in data set [3] (STZ-diabetic rats fasted 4 hrs, 100 mg/kg orally, 6 hrs after administration vs before) was determined as 23.6%.

As to `O=C1CN(S(=O)(=O)c2cc3ccccc3o2)C(=O)N1` [Compound 9, 1-(benzo[b]furan-2-ylsulfonyl)hydantoin], the acute toxicity result in the data set with ICR strain mice is listed as “no change was observed”.
